Measured values taken from the supplement of paper PMC10307832.

Columns and labels:
Assay in all cases: relative viability (nuclei count vs DMSO), 5 days (fraction); higher = more cells survive
[1] = compound: O=c1[nH]cc(F)c(=O)[nH]1 [5-Fluorouracil] + O=C(CCCCCCC(=O)Nc1ccccc1)NO [Vorinostat] (partner 1 µM)
Summary of the method: (§1)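 Values are medians from duplicate plates. Each reflects relative viability, defined as the nuclei count of treated wells over that of vehicle wells. Lung cancer cell lines in 1536-well plates were pin-tool dosed one day after seeding with one drug alone or with a fixed anchor-drug dose plus five library-drug doses (not always all listed) in √10 steps, then fixed, stained and imaged at 4× after 5 days.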

Sulindac + Bortezomib = compound: CC1=C(CC(=O)O)c2cc(F)ccc2/C1=C\c1ccc([S+](C)[O-])cc1 [Sulindac] + CC(C)C[C@H](NC(=O)[C@H](Cc1ccccc1)NC(=O)c1cnccn1)B(O)O [Bortezomib] (partner 0.002 µM)
Summary of the method: as §1

Sulindac + Foretinib = compound: CC1=C(CC(=O)O)c2cc(F)ccc2/C1=C\c1ccc([S+](C)[O-])cc1 [Sulindac] + COc1cc2c(Oc3ccc(NC(=O)C4(C(=O)Nc5ccc(F)cc5)CC4)cc3F)ccnc2cc1OCCCN1CCOCC1 [Foretinib] (partner 0.25 µM)
Summary of the method: as §1

[2] = compound: CN[C@@H]1C[C@H]2O[C@@](C)([C@@H]1OC)n1c3ccccc3c3c4c(c5c6ccccc6n2c5c31)C(=O)NC4 [Staurosporine] + Cc1cc(Nc2cc(N3CCN(C)CC3)nc(Sc3ccc(NC(=O)C4CC4)cc3)n2)n[nH]1 [Tozasertib] (partner 0.1 µM)
Summary of the method: as §1

| Cell Line | relative viability ([1]; first compound 0.02 µM) | relative viability ([1]; first compound 0.2 µM) | relative viability ([1]; first compound 0.6325 µM) | relative viability ([1]; first compound 2 µM) | relative viability (Sulindac + Bortezomib; first compound 0.253 µM) | relative viability (Sulindac + Bortezomib; first compound 0.8 µM) | relative viability (Sulindac + Bortezomib; first compound 2.53 µM) | relative viability (Sulindac + Bortezomib; first compound 8 µM) | relative viability (Sulindac + Foretinib; first compound 0.08 µM) | relative viability (Sulindac + Foretinib; first compound 0.253 µM) | relative viability (Sulindac + Foretinib; first compound 0.8 µM) | relative viability (Sulindac + Foretinib; first compound 2.53 µM) | relative viability (Sulindac + Foretinib; first compound 8 µM) | relative viability ([2]; first compound 0.005 µM) | relative viability ([2]; first compound 0.01581 µM) | relative viability ([2]; first compound 0.05 µM) | relative viability ([2]; first compound 0.1581 µM) | relative viability ([2]; first compound 0.5 µM) | relative viability (Sulindac + Bortezomib; first compound 0.08 µM) |
| --- | --- | --- | --- | --- | --- | --- | --- | --- | --- | --- | --- | --- | --- | --- | --- | --- | --- | --- | --- |
| NCI-H1666 | 0.981 | 0.649 | 0.577 | 0.563 | 0.724 | 0.729 | 0.767 | 0.937 | 1.01 | 1.02 | 0.908 | 0.975 | 1.13 | 0.544 | 0.44 | 0.402 | 0.355 | 0.257 |  |
| NCI-H1734 | 0.807 | 0.835 | 0.685 | 0.464 | 0.937 | 0.731 | 0.914 | 1.25 | 0.864 | 0.956 |  | 1.03 | 0.958 | 0.314 | 0.206 | 0.191 | 0.132 | 0.0956 | 1.01 |
| NCI-H1755 | 0.777 | 0.493 | 0.307 | 0.306 | 1.03 | 0.85 | 1.01 | 1.04 | 0.976 | 0.974 | 0.848 | 0.916 | 1.03 | 0.474 | 0.311 | 0.207 | 0.184 | 0.219 | 1.25 |
| NCI-H1915 | 0.404 | 0.493 | 0.587 | 0.407 | 1.08 | 0.861 | 0.956 | 1.05 | 1.26 | 1.2 |  | 1.11 | 1.15 | 0.45 | 0.229 | 0.217 | 0.108 | 0.154 | 1.18 |
| NCI-H1975 | 0.748 | 0.457 | 0.302 | 0.215 | 0.461 |  | 0.334 | 0.441 | 1.12 | 1.01 | 1.05 | 0.993 | 1.05 | 0.363 | 0.205 | 0.128 | 0.0804 | 0.0788 | 0.387 |
| NCI-H1993 | 0.846 | 0.552 | 0.494 | 0.547 | 1.1 | 1.03 | 0.945 | 1.29 | 0.728 | 0.724 | 0.751 | 0.761 | 0.752 | 0.639 | 0.535 | 0.434 | 0.491 | 0.429 | 1.11 |
| NCI-H2009 | 0.75 | 0.825 | 0.753 | 0.396 | 1.16 | 0.877 | 1.01 | 1.04 | 1.32 | 1.26 | 1.26 | 1.22 | 1.12 | 0.295 | 0.312 | 0.176 | 0.19 | 0.0978 | 1.1 |
| NCI-H2023 | 0.369 | 0.124 | 0.103 | 0.0849 | 1.04 | 0.666 | 1 | 1.07 | 0.969 | 0.867 | 0.715 | 0.821 | 1.07 | 0.202 | 0.21 | 0.0713 | 0.0971 | 0.0603 | 1.13 |
| NCI-H2085 | 0.754 | 0.96 | 0.728 | 0.651 | 1.06 | 0.917 | 1.12 | 1.11 | 0.763 | 0.987 | 0.882 | 0.914 | 1.08 | 0.721 | 0.32 | 0.355 | 0.24 |  | 0.976 |
| NCI-H2087 | 0.801 | 0.924 | 0.515 | 0.367 | 0.835 | 0.695 | 0.892 | 1.09 | 1.44 | 1.1 |  | 1.22 | 1.29 | 0.189 | 0.206 | 0.102 | 0.0977 | 0.0926 | 1.17 |
| NCI-H2126 | 0.59 | 0.296 | 0.279 | 0.262 | 1.15 | 1.06 | 1.2 | 1.19 | 1.2 | 1.18 | 1.06 | 1.01 | 1.14 | 0.658 | 0.494 | 0.348 | 0.247 | 0.226 | 1.2 |
| NCI-H2228 | 0.665 | 0.373 | 0.407 | 0.321 | 1.02 | 0.45 | 1.31 | 1.01 | 1.02 | 1.07 | 0.773 | 0.751 | 0.899 | 0.251 | 0.201 | 0.109 | 0.115 | 0.124 | 1.31 |
| NCI-H2347 | 0.64 | 0.41 | 0.41 | 0.431 | 0.97 | 0.704 | 0.86 | 1.11 | 1.08 | 0.562 | 0.645 | 1.26 | 0.807 | 0.514 | 0.357 | 0.196 | 0.268 | 0.219 | 0.884 |
| NCI-H2405 | 1.02 | 1.14 | 0.931 | 0.522 | 1.01 | 0.888 | 0.96 | 1.06 | 1.03 | 1.08 | 0.981 | 1.03 | 1.09 | 0.586 | 0.256 | 0.0844 | 0.0771 | 0.0789 | 1.01 |
| NCI-H3122 | 0.985 | 0.867 | 0.392 |  | 1.01 | 1.1 | 1.04 | 1.02 | 1.06 | 0.936 | 1.01 | 1.01 | 0.981 | 0.441 |  | 0.246 | 0.134 | 0.0837 | 1.05 |
| PC-3 [JPC-3] | 0.752 | 0.825 | 0.871 | 0.522 | 0.796 | 1.02 | 0.907 | 0.862 | 1.12 | 1.11 | 1.14 | 1.09 | 1.05 | 0.919 | 0.598 | 0.512 | 0.321 | 0.344 | 0.967 |
| PC-14 | 0.82 | 0.635 | 0.623 | 0.355 | 0.902 |  | 0.929 | 0.783 | 1.07 | 1.14 | 0.671 | 1.04 | 1.01 | 0.514 | 0.218 | 0.0637 | 0.0512 | 0.0343 | 1.05 |
